Assay results published in patent US20240041970A1, “TRADITIONAL CHINESE HERBAL COMPOSITION FOR TREATING ALLERGIC CONJUNCTIVITIS AND/OR ALLERGIC RHINITIS” (EYE HOSPITAL, CHINA ACADEMY OF CHINESE MEDICAL SCIENCES, priority 2021, published 2024).

Legend:
allergic rhinitis = assay: Clinical efficacy: nasal symptoms and signs (effective rate); type: in vivo, human; conditions: 1-week treatment, oral
Text: (§1) From May 10, 2021 to Aug. 23, 2021, 36 patients diagnosed with allergic conjunctivitis complicated and allergic rhinitis were collected from Eye Hospital, China Academy of Chinese Medical Sciences, and they were divided into 2 groups according to a random number table method with 20 cases in the treatment group and 16 cases in the control group.
(§2) The treatment group was orally administered with the water decoction prepared in Example 1 with one dose a day and for twice a day, and the control group was orally administered with 10 mg of cetirizine capsules once a day.
(§3) 2. Evaluation Indexes: • 1) Ocular and nasal symptoms and signs were standardly divided into 4 grades (0: none, 1: mild: 2: moderate: and 3: severe); • 2) Systemic adverse reactions and local adverse reactions in the eyes and nose were recorded.
Rhinocnesmus: (1) none; (2) mild and intermittent; (3) moderate: an ant walking sensation that can be tolerated; and (4) severe: an ant walking sensation that cannot be tolerated.
Sneezing (number of consecutive sneezings): (1) none; (2) mild: 3-9; (3) moderate: 10-14; (4) severe: ≥15.
Nose running (number of nose blowings per day): (1) none; (2) mild: =4; (3) moderate: 5-9; (4) severe ≥10.
The effective rate evaluation method is based on standards established in Clinical Development Guidelines for Pharmaceutical Products for Treatment of Allergic Rhinoconjunctivitis published by the European Medicines Agency, Chinese Expert Consensus on Diagnosis and Treatment of Allergic Conjunctivitis by Chinese Journal of Ophthalmology, 2018, and Guidelines for Diagnosis and Treatment of Allergic Rhinitis (Chinese Journal of Otorhinolaryngology Head and Neck Surgery, 2016. Vol. 51), and is divided into 4 grades (0: none; 1: mild; 2: moderate; and 3: severe), and it is considered effective if two symptoms (or signs) are improved by one grade or more, or same symptom (or sign) is improved by two grades or more. ((2) to (1), (3) to (2) or (4) to (3) represents a one-grade improvement, and (3) to (1) represents a two-grade improvement).

allergic conjunctivitis = assay: Clinical efficacy: ocular symptoms and signs (effective rate); type: in vivo, human; conditions: 1-week treatment, oral
Text: as §1, §2, §3
Eye itching: (1) none; (2) mild: the patient won't notice eye itching when busy at work, but can feel itching when free, or has intermittent eye itching, but it's not severe enough to need to be scratched with hand; (3) moderate: the patient has obvious eye itching, and can still tolerate this symptom, but has the desire to scratch it with hand; and (4) severe: the patient has very obvious and continuous eye itching and stabbing pain, and cannot tolerate these symptoms, and therefore normal life is affected.
Conjunctival congestion: (1) none; (2) mild: congestion takes place in palpebral conjunctiva and fornix in a reticular form; (3) moderate: congestion takes place in palpebral conjunctiva, fornix and bulbar conjunctiva in a reticular form; and (4) severe: congestion takes place in palpebral conjunctiva in a form of red patches, blood vessels are blurred, and obvious congestion takes place in fornix and bulbar conjunctiva;
Conjunctival edema: (1) none; (2) bulbar conjunctival edema can be seen under a slit lamp examination; (3) moderate; bulbar conjunctival edema can be directly seen under natural light; and (4) severe: bulbar conjunctival edema with vesicular protuberances; […]

O=C(O)COCCN1CCN(C(c2ccccc2)c2ccc(Cl)cc2)CC1 (stereo not drawn) [cetirizine]
Effective Rate (nasal efficacy) (allergic rhinitis): 75.0%
Effective (nasal efficacy) (allergic rhinitis; number of patients): 12
Ineffective (nasal efficacy) (allergic rhinitis; number of patients): 4
Effective Rate (ocular efficacy) (allergic conjunctivitis): 68.75%
Effective (ocular efficacy) (allergic conjunctivitis; number of patients): 11
Ineffective (ocular efficacy) (allergic conjunctivitis; number of patients): 5
